Columns and labels:
IKZF3 = IKZF3 (Homo sapiens (Human), UniProt Q96SW2+Q9UKT9); experiment: Western blot, substrate protein expression in hPBMC: IKZF3; assay type: cell-based; settings: hPBMC, compound 500 nM, 24 hours, Western blot
In short: (§1)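 hPBMC, 1×10^6 cells/mL, 24 h compound exposure; RIPA lysis, BCA protein assay, SDS-PAGE, NC membrane immunoblot. Densitometry vs internal control → % protein remaining; degradation % = 100% − remaining; DC50 = conc. at 50% of DMSO band signal.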

GSPT1 = GSPT1 (Homo sapiens (Human), UniProt P15170+Q96SW2); experiment: Western blot, substrate protein expression in hPBMC: GSPT1; assay type: cell-based; settings: for substrate protein remaining % GSPT1: hPBMC, compound 500 nM, 24 hours, Western blot; for concentration at which GSPT1 protein was clearly/significantly degraded (Western blot, FIG. 1): hPBMCs
In short: as §1

[1] = biological target: human Cereblon WT GST-tagged protein (Homo sapiens (Human), UniProt Q96SW2); experiment: CRBN-binding affinity, HTRF (CEREBLON BINDING kit, CISBIO); settings: HTRF inhibitory activity
In short: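 Compounds were mixed with GST-tagged human Cereblon WT protein, then with Thalidomide-Red tracer and GST Eu antibody, and binding was read by HTRF. Inhibition rate was calculated from 620 nm emission relative to blank control wells (no protein) and solvent control wells.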

IKZF1 = IKZF1 (Homo sapiens (Human), UniProt Q13422+Q96SW2); experiment: Western blot, substrate protein expression in hPBMC: IKZF1; assay type: cell-based; settings: hPBMC, compound 500 nM, 24 hours, Western blot
In short: as §1

IKZF3, sequence (Q9UKT9 whole entry): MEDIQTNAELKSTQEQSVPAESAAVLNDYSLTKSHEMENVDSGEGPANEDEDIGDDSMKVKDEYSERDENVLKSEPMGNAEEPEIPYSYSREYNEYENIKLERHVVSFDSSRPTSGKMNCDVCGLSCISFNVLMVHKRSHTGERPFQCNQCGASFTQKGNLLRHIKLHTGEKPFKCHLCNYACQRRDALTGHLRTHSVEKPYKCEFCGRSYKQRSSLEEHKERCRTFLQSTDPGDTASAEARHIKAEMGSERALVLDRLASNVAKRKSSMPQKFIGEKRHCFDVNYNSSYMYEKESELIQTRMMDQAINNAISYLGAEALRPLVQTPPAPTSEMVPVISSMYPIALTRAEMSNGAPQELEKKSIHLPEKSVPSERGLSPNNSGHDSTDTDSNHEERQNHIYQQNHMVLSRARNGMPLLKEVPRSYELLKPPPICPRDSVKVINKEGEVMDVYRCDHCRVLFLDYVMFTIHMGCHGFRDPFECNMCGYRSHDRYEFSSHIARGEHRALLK
IKZF3, sequence (Q96SW2 whole entry): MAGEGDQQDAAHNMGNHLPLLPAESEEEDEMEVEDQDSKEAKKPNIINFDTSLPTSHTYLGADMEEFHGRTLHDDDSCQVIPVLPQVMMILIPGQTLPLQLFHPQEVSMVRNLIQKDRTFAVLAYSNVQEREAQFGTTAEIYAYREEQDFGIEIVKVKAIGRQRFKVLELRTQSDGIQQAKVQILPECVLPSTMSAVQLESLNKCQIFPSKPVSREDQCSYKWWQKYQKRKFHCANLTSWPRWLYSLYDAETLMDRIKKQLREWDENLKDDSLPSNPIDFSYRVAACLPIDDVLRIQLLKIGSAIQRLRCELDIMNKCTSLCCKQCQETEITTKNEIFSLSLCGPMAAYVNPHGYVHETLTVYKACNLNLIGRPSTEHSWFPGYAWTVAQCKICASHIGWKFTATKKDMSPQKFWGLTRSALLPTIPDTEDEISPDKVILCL
IKZF3, sequence (Q16531 whole entry partner): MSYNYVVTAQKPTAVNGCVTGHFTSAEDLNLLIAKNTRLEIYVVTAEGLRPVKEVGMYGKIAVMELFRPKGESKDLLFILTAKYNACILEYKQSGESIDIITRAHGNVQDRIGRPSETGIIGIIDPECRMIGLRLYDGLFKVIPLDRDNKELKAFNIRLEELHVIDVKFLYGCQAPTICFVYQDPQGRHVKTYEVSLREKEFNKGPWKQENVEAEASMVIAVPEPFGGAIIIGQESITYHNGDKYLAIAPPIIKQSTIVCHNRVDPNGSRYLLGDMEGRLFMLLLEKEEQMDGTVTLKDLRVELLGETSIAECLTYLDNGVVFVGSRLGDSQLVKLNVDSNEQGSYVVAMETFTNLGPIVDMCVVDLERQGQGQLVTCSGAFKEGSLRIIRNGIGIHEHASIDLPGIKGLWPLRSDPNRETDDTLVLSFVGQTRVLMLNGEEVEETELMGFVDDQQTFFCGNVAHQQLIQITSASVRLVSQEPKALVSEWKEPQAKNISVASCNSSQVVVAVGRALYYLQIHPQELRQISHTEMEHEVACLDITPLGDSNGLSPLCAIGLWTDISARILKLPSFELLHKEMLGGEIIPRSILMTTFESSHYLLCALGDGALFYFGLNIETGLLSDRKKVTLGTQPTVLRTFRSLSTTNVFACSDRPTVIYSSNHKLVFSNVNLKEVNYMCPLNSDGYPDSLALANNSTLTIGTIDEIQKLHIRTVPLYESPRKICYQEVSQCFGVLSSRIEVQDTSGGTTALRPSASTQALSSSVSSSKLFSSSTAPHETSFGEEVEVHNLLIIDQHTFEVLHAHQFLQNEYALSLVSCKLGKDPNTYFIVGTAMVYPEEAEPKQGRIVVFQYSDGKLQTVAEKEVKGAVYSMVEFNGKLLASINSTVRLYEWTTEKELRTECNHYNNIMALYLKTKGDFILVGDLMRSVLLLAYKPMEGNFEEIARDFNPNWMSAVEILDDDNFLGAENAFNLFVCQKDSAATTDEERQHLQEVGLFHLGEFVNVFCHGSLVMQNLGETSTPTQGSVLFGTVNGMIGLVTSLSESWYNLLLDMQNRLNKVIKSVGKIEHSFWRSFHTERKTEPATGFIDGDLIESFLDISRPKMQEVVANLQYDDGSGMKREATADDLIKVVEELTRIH
human Cereblon WT GST-tagged protein, sequence (Q96SW2 whole entry): as the sequence (Q96SW2 whole entry) above
IKZF1, sequence (Q13422 whole entry): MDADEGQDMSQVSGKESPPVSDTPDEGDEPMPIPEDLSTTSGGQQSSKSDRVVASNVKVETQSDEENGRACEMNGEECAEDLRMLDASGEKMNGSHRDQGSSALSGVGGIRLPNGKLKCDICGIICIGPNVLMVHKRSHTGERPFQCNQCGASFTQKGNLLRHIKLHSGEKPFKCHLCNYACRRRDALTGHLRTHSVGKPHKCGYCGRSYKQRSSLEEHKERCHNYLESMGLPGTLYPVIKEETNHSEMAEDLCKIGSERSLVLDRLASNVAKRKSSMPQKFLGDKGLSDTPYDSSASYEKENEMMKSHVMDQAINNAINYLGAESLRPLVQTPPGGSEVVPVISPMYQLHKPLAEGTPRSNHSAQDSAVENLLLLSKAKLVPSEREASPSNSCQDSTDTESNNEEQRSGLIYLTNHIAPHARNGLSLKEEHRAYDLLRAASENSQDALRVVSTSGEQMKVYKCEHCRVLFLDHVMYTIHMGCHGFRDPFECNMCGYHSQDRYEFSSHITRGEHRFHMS
IKZF1, sequence (Q96SW2 whole entry): as the sequence (Q96SW2 whole entry) above
IKZF1, sequence (Q16531 whole entry partner): as the sequence (Q16531 whole entry partner) above
GSPT1, sequence (P15170 whole entry): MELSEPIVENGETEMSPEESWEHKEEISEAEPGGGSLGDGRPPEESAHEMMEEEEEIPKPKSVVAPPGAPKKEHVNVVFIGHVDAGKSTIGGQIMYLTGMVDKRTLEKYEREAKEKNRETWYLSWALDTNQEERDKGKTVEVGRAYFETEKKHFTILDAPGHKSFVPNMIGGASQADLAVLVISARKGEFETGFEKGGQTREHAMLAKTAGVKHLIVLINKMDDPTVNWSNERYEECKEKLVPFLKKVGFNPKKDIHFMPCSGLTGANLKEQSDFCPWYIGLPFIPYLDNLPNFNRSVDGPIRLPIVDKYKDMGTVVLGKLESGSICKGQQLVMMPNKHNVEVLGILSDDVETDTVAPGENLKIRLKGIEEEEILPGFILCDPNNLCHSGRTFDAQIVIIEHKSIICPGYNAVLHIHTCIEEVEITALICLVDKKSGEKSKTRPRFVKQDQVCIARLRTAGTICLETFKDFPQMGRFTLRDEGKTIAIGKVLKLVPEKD
GSPT1, sequence (Q96SW2 whole entry): as the sequence (Q96SW2 whole entry) above
GSPT1, sequence (Q16531 whole entry partner): as the sequence (Q16531 whole entry partner) above

SMILES | substrate protein remaining % IKZF3 (IKZF3) | substrate protein remaining % GSPT1 (GSPT1) | concentration at which GSPT1 protein was clearly/significantly degraded (Western blot, FIG. 1) (GSPT1) | IC50 [1] | substrate protein remaining % IKZF1 (IKZF1)
O=C1CCC(N2Cc3cc(C(=O)N4CCN(C(c5ccccc5)c5ccccc5)CC4)ccc3C2=O)C(=O)N1 (stereo not shown) [GT-05689, 3-(5-(4-benzhydrylpiperazine-1-carbonyl)-1-oxoisoindolin-2-yl)piperidine-2,6-dione] | B (B represents substrate protein remaining % > 50%) | A (A represents 0% ≤ substrate protein remaining % ≤ 50%) | below 50 nM | 500 to 1000 nM | B (B represents substrate protein remaining % > 50%)
O=C1CCC(N2Cc3c(ccc(CN4CCN(C(c5ccccn5)c5ccccn5)CC4)c3F)C2=O)C(=O)N1 (stereo not shown) [GT-05713, 3-(5-((4-(di(pyridin-2-yl)methyl)piperazin-1-yl)methyl)-4-fluoro-1-oxoisoindolin-2-yl)piperidine-2,6-dione] | B (B represents substrate protein remaining % > 50%) | A (A represents 0% ≤ substrate protein remaining % ≤ 50%) |  | 500 to 1000 nM | B (B represents substrate protein remaining % > 50%)
O=C1CCC(N2C(=O)c3ccc(CN4CC5CCC4CN5C(c4ccccc4)c4ccccc4)cc3C2=O)C(=O)N1 (stereo not shown) [GT-05730, 5-((5-benzhydryl-2,5-diazabicyclo[2.2.2]octan-2-yl)methyl)-2-(2,6-dioxopiperidin-3-yl) isoindoline-1,3-dione] | B (B represents substrate protein remaining % > 50%) | A (A represents 0% ≤ substrate protein remaining % ≤ 50%) |  | 1000 to 1900 nM | B (B represents substrate protein remaining % > 50%)
O=C1CCC(N2Cc3cc(CN4C5CC4CN(C(c4ccccc4)c4ccccc4)C5)c(F)cc3C2=O)C(=O)N1 (stereo not shown) [GT-05737, 3-(5-((3-benzhydryl-3,6-diazabicyclo[3.1.1]heptan-6-yl)methyl)-6-fluoro-1-oxoisoindolin-2-yl)piperidine-2,6-dione] | B (B represents substrate protein remaining % > 50%) | A (A represents 0% ≤ substrate protein remaining % ≤ 50%) |  | 500 to 1000 nM | B (B represents substrate protein remaining % > 50%)
O=C1CCC(N2Cc3cc(CN4CCCN(C(c5ccccc5)c5ccccc5)CC4)c(F)cc3C2=O)C(=O)N1 (stereo not shown) [GT-05738, 3-(5-((4-benzhydryl-1,4-diazepan-1-yl)methyl)-6-fluoro-1-oxoisoindolin-2-yl)piperidine-2,6-dione] | B (B represents substrate protein remaining % > 50%) | A (A represents 0% ≤ substrate protein remaining % ≤ 50%) |  | 1000 to 1900 nM | B (B represents substrate protein remaining % > 50%)
O=C1CCC(N2Cc3cc(CC4CCN(C(c5ccccc5)c5ccccc5)CC4)ccc3C2=O)C(=O)N1 (stereo not shown) [GT-05744, 3-(5-((1-benzhydrylpiperidin-4-yl)methyl)-1-oxoisoindolin-2-yl)piperidine-2,6-dione] | B (B represents substrate protein remaining % > 50%) | A (A represents 0% ≤ substrate protein remaining % ≤ 50%) |  | < 500 nM | B (B represents substrate protein remaining % > 50%)
O=C1CCC(N2Cc3cc(C(=O)N4CCN(C(c5ccccc5)c5ccccc5)CC4)cc(F)c3C2=O)C(=O)N1 (stereo not shown) [GT-05850, 3-(5-(4-benzhydrylpiperazine-1-carbonyl)-7-fluoro-1-oxoisoindolin-2-yl)piperidine-2,6-dione] | B (B represents substrate protein remaining % > 50%) | A (A represents 0% ≤ substrate protein remaining % ≤ 50%) |  | 1000 to 1900 nM | A (A represents 0% ≤ substrate protein remaining % ≤ 50%)
O=C1CCC(N2Cc3cc(C(=O)N4CCN(C(c5ccccc5)c5ccccn5)CC4)ccc3C2=O)C(=O)N1 (stereo not shown) [GT-05854, 3-(1-oxo-5-(4-(phenyl(pyridin-2-yl)methyl)piperazine-1-carbonyl)isoindolin-2-yl)piperidine-2,6-dione] | B (B represents substrate protein remaining % > 50%) | A (A represents 0% ≤ substrate protein remaining % ≤ 50%) |  | 1000 to 1900 nM | B (B represents substrate protein remaining % > 50%)
O=C1CCC(N2Cc3cc(CN4CCC(N(c5ccccc5)c5ccccn5)CC4)cc(F)c3C2=O)C(=O)N1 (stereo not shown) [GT-05858, 3-(7-fluoro-1-oxo-5-((4-(phenyl(pyridin-2-yl)amino)piperidin-1-yl)methyl)isoindolin-2-yl)piperidine-2,6-dione] | B (B represents substrate protein remaining % > 50%) | A (A represents 0% ≤ substrate protein remaining % ≤ 50%) | below 50 nM | 500 to 1000 nM | B (B represents substrate protein remaining % > 50%)
O=C1CCC(N2Cc3cc(CC4CN(C(c5ccccc5)c5ccccc5)C4)ccc3C2=O)C(=O)N1 (stereo not shown) [GT-05859, 3-(5-((1-benzhydrylazetidin-3-yl)methyl)-1-oxoisoindolin-2-yl)piperidine-2,6-dione] | B (B represents substrate protein remaining % > 50%) | A (A represents 0% ≤ substrate protein remaining % ≤ 50%) |  | < 500 nM | A (A represents 0% ≤ substrate protein remaining % ≤ 50%)
O=C1CCC(N2Cc3cc(C4CCN(C(c5ccccc5)c5ccccc5)CC4)ccc3C2=O)C(=O)N1 (stereo not shown) [GT-05868, 3-(5-(1-benzhydrylpiperidin-4-yl)-1-oxoisoindolin-2-yl)piperidine-2,6-dione] | A (A represents 0% ≤ substrate protein remaining % ≤ 50%) | A (A represents 0% ≤ substrate protein remaining % ≤ 50%) |  | 500 to 1000 nM | A (A represents 0% ≤ substrate protein remaining % ≤ 50%)
O=C1CCC(N2Cc3cc(C(=O)N4CCN(C(c5ccccc5)c5ccccn5)CC4)cc(F)c3C2=O)C(=O)N1 (stereo not shown) [GT-05877, 3-(7-fluoro-1-oxo-5-(4-(phenyl(pyridin-2-yl)methyl)piperazine-1-carbonyl)isoindolin-2-yl)piperidine-2,6-dione] | B (B represents substrate protein remaining % > 50%) | A (A represents 0% ≤ substrate protein remaining % ≤ 50%) |  | 1000 to 1900 nM | B (B represents substrate protein remaining % > 50%)
O=C1CCC(N2Cc3cc(C(=O)N4CCN(C(c5ccc(F)cc5)c5ccc(F)cc5)CC4)ccc3C2=O)C(=O)N1 (stereo not shown) [GT-05881, 3-(5-(4-(bis(4-fluorophenyl)methyl)piperazine-1-carbonyl)-1-oxoisoindolin-2-yl)piperidine-2,6-dione] | B (B represents substrate protein remaining % > 50%) | A (A represents 0% ≤ substrate protein remaining % ≤ 50%) |  | 500 to 1000 nM | B (B represents substrate protein remaining % > 50%)
O=C1CCC(N2Cc3cc(C(=O)N4CCN(C(c5ccc(F)cc5)c5ccc(F)cc5)CC4)cc(F)c3C2=O)C(=O)N1 (stereo not shown) [GT-05882, 3-(5-(4-(bis(4-fluorophenyl)methyl)piperazine-1-carbonyl)-7-fluoro-1-oxoisoindolin-2-yl)piperidine-2,6-dione] | B (B represents substrate protein remaining % > 50%) | A (A represents 0% ≤ substrate protein remaining % ≤ 50%) |  | 500 to 1000 nM | B (B represents substrate protein remaining % > 50%)
O=C1CCC(N2Cc3cc(C(=O)N4CCN(C(c5ccc(Cl)cc5)c5ccc(Cl)cc5)CC4)ccc3C2=O)C(=O)N1 (stereo not shown) [GT-05886, 3-(5-(4-(bis(4-chlorophenyl)methyl)piperazine-1-carbonyl)-1-oxoisoindolin-2-yl)piperidine-2,6-dione] | A (A represents 0% ≤ substrate protein remaining % ≤ 50%) | A (A represents 0% ≤ substrate protein remaining % ≤ 50%) |  | 1000 to 1900 nM | B (B represents substrate protein remaining % > 50%)
O=C1CCC(N2Cc3c(CN4CC5(CCN(C(c6ccccc6)c6ccccc6)CC5)C4)cccc3C2=O)C(=O)N1 (stereo not shown) [GT-05905, 3-(4-((7-benzhydryl-2,7-diazaspiro[3.5]nonan-2-yl)methyl)-1-oxoisoindolin-2-yl)piperidine-2,6-dione] | B (B represents substrate protein remaining % > 50%) | A (A represents 0% ≤ substrate protein remaining % ≤ 50%) |  | 500 to 1000 nM | B (B represents substrate protein remaining % > 50%)
CC1CN(C(c2ccccc2)c2ccccc2)CC(C)N1C(=O)c1ccc2c(c1)CN(C1CCC(=O)NC1=O)C2=O (stereo not shown) [GT-05920, 3-(5-(4-benzhydryl-2,6-dimethylpiperazine-1-carbonyl)-1-oxoisoindolin-2-yl)piperidine-2,6-dione] | B (B represents substrate protein remaining % > 50%) | A (A represents 0% ≤ substrate protein remaining % ≤ 50%) |  | < 500 nM | B (B represents substrate protein remaining % > 50%)
